Results: patent publication EP0571928A1, “Acyclic Tocotrienol analogs in the treatment of hypercholesterolemia and hyperlipidemia” (Bristol-Myers Squibb Company, priority 1992, dated 1993)

How the values were obtained:
[1] = system: cholesterol biosynthesis in HepG2 cells; assay: HepG2 cell culture model - 14C-acetate incorporation assay (cholesterol synthesis); assay type: cell-based; details: 3-4 hours incubation, 2-14C-acetate incorporation into digitonin-precipitable sterols, vs. vehicle controls; for inhibition at 10 µM: Homo sapiens, read-out: Sterol Biosynthesis % Inhibition 10µM
Method: HepG2 Cell Culture Model - 14C-Acetate Incorporation Assay
After 16 hours in LDS containing media, test compounds were added in dimethylsulfoxide vehicle (0.5% v/v final conc.) for an incubation period of 3-4 hours. Cholesterol synthesis was then directly determined by 2-14C-acetate (1.8 mCi/mmol, 0.5 µCi/ml) incorporation for 30 to 60 minutes (previously shown to be time-linear) into total digitonin-precipitable sterols. […] Percent inhibition was calculated from the average of duplicates vs. triplicate vehicle controls conducted simultaneously.

[2] = system: HMG-CoA reductase; assay: HepG2 cell culture model - HMG-CoA reductase suppression assay; assay type: cell-based; details: HepG2 cells, 4 hours of incubation at 37°, decrease in specific activity vs. vehicle controls
Method: HepG2 Cell Culture Model - HMG-CoA Reductase Suppression Assay
HMG-CoA reductase suppression in HepG2 cells was conducted by growing cells in RPMT-1640 plus 10% FBS on 100 mm plates, and when cells reached approximately 75% confluency, inducing with LDS (as described above) for 16 hours prior to assays. Compounds were added using dimethylsulfoxide vehicle (0.5% v/v, final) and after 4 hours of incubation at 37°, cells were harvested by scraping. Cell pellets were rinsed and lysed by sonication in 1.7 ml cold 50 mM imidazole-HCl, pH 7.2, 50 mM NaCl, 10 mM EDTA, 10 mM EGTA, 5mM DTT, and 40 µM leupeptin). Lysates were centrifuged at 150 x g and the supernatant was centrifuged at 100,000 x g in a Beckman airfuge to isolate the post-nuclear total membrane fraction. The membranes were resuspended in 50 mM imidazole-HCl, pH 7.2, 250 mM NaCl, 5 mM DTT, and 20 µM leupeptin and used for the assay of HMG-CoA reductase activity by the radiochemical procedure as described previously by Parker et al., J. Biol. Chem., 264: 4877-4887, (1989). Values were normalized for protein content by the Lowry method as cited previously (ibid). HMG-CoA reductase percent suppression was calculated as the decrease in specific activity of HMG-CoA reductase for treated cells vs. controls receiving vehicle. Averages of duplicate cell determinations assayed in duplicate were taken.

[3] = system: Normocholesterolemic Chickens; assay: In vivo evaluation in normocholesterolemic chickens - serum cholesterol pools; details: 6-week old male chickens, 50 ppm in diet for four weeks
Method: In Vivo Biological Evaluation in Normocholesterolemic Chickens
Newborn male chicks (10 for each group) were raised on a standard corn-soybean based control diet for two weeks and then switched to either control or experimental diets for four weeks. Drug treatment consisted of the addition of test compounds to the corn-soybean-based diet at a concentration of 50 ppm. At the end of the feeding period, all the birds were fasted (36 hours) and refed (48 hours) to induce cholesterolgenic enzymes prior to sacrifice. The specific activity of HMGR, total serum cholesterol levels, LDL cholesterol and HDL cholesterol pools were determined (Table 6).

Molecule	inhibition at 10 µM [1] [%]	other results
1-(4-Hydroxyphenyl)-6,10,14-Trimethyl-5(E), 9(E), 13-Pentadecatrien-1- One [Example 35]	–	Sterol Biosynthesis % Inhibition 10µM [1]: 78%
2-Hydroxy-4,6-Dimethyl-5-[(5,9,13-Trimethyl-4(E), 8(E), 12-Tetradecatrienyl)oxy]-1,3-Benzenedimethanol [Example 17]	–	Sterol Biosynthesis % Inhibition 10µM [1]: 72%
3,5-Dimethoxy-4-[(5,9,13-Trimethyl-4(E), 8(E), 12-tetradecatrienyl)oxy]phenol [Example 16]	–	Sterol Biosynthesis % Inhibition 10µM [1]: 66%
4-[2-(5,9,13)-Trimethyl-4(E), 8(E), 12-tetradecatrienyl)-1,3-dithian-2-yl]phenol [Example 34]	–	Sterol Biosynthesis % Inhibition 10µM [1]: 43%
4-[(5,9,13-Trimethyl-4(E), 8(E),12-tetradecatrienyl)oxy]benzenemethanol [Example 21]	–	HMG-CoA Reductase Suppression % 10µM [2]: 9%; Sterol Biosynthesis % Inhibition 10µM [1]: 64%
CC(C)=CCC/C(C)=C/CC/C(C)=C/CCCOc1ccccc1 [Example 5, (5,9,13-Trimethyl-4(E), 8(E),12-tetradecatrienyl)oxy benzene]	12	–
CC(C)=CCC/C(C)=C/CC/C(C)=C/CCCOc1ccccc1O [Example 6, 2-[(5,9,13-Trimethyl-4(E), 8(E),12-tetradecatrienyl)oxy]phenol]	10	–
CC(C)=CCC/C(C)=C/CC/C(C)=C/CCCOc1cccc(O)c1 [Example 7, 3-[(5,9,13-Trimethyl-4(E), 8(E),12-tetradecatrienyl)oxy]phenol]	38	–
CC(C)=CCC/C(C)=C/CC/C(C)=C/CCCOc1ccc(O)cc1 [Example 8, 4-[(5,9,13-Trimethyl-4(E), 8(E),12-tetradecatrienyl)oxy]phenol]	71	HMG-CoA Reductase Suppression % 10µM [2]: 29%
CC(C)=CCC/C(C)=C/CC/C(C)=C/COc1ccc(O)c(C)c1C [Example 9, 2,3-Dimethyl-4-[(3,7,11-Trimethyl-2(E), 6(E), 10-dodecatrienyl)oxy]phenol]	36	–
CC(C)=CCC/C(C)=C/CC/C(C)=C/CCOc1ccc(O)c(C)c1C [Example 10, 2,3-Dimethyl-4-[(4,8,12-Trimethyl-3(E),7(E), 11-tridecatrienyl)oxy]phenol]	58	HMG-CoA Reductase Suppression % 10µM [2]: 38%
CC(C)=CCC/C(C)=C/CC/C(C)=C/CCCOc1ccc(O)c(C)c1C [Example 11, 2,3-Dimethyl-4-[(5,9,13-Trimethyl-4(E), 8(E), 12-tetradecatrienyl)oxy]phenol]	64	HMG-CoA Reductase Suppression % 10µM [2]: 53%
CC(C)=CCC/C(C)=C/CC/C(C)=C/CCCOc1c(C)cc(O)cc1C [Example 12, 3,5-Dimethyl-4-[(5,9,13-Trimethyl-4(E), 8(E), 12-tetradecatrienyl)oxy] phenol]	70	HMG-CoA Reductase Suppression % 10µM [2]: 35%; HDL Cholesterol [3]: 70 % of Control; LDL Cholesterol [3]: 50 % of Control; Total Cholesterol ([3]; serum): 67 % of Control
CC(C)=CCCC(C)=CCCC(C)=CCCCOc1c(C)cc(O)cc1C [Example 13, 3,5-Dimethyl-4-[(5,9,13-Trimethyl-4,8, 12-tetradecatrienyl)oxy]phenol]	70	HMG-CoA Reductase Suppression % 10µM [2]: 45%
CC(C)=CCC/C(C)=C/CC/C(C)=C/CCCOc1c(C)cc(OC(N)=O)cc1C [Example 14, 3,5-Dimethyl-4-[(5,9,13-Trimethyl-4(E), 8(E), 12-tetradecatrienyl)oxy]phenyl carbamate]	65	HMG-CoA Reductase Suppression % 10µM [2]: 21%
CC(C)=CCC/C(C)=C/CC/C(C)=C/CCCOc1c(C)cc(O)c(C)c1C [Example 15, 2,3,5-Trimethyl-4-[(5,9,13-Trimethyl-4(E),8(E), 12-tetradecatrienyl)oxy] phenol]	48	–
CC(C)=CCC/C(C)=C/CC/C(C)=C/CCCOc1ccc(O)c(CCO)c1 [Example 18, 2-Hydroxy-5-[(5,9,13-Trimethyl-4(E), 8(E), 12-tetradecatrienyl)oxy]benzene ethanol]	64	–

Molecule	inhibition at 10 µM [1] [%]	other results
CC(C)=CCC/C(C)=C/CC/C(C)=C/CCCOc1c(F)c(F)c(O)c(F)c1F [Example 19, 2,3,5,6-Tetrafluoro-4-[(5,9,13-Trimethyl-4(E), 8(E)-,12-tetradecatrienyl)oxy]phenol]	55	–
CC(=O)c1cc(O)ccc1OCCC/C=C(\C)CC/C=C(\C)CCC=C(C)C [Example 20, 1-[5-Hydroxy-2-(5,9,13-Trimethyl-4(E), 8(E),12-tetradecatrienyloxy)phenyl]ethanone]	69	–
CC(C)=CCC/C(C)=C/CC/C(C)=C/CCCOc1cccc(CO)c1 [Example 22, 3-[(5,9,13-Trimethyl-4(E), 8(E),12-Tetradecatrienyl)oxy]benzenemethanol]	73	–
CC(C)=CCC/C(C)=C/CC/C(C)=C/CCCOc1ccc(C(N)=O)cc1 [Example 23, 4-[(5,9,13-Trimethyl-4(E),8(E),12-tetradecatrienyl)oxy]benzamide]	42	–
CC(C)=CCC/C(C)=C/CC/C(C)=C/CCCOc1ccc(N)cc1 [Example 24, 4-[(5,9,13-Trimethyl-4(E), 8(E),12-tetradecatrienyl)oxy]aniline]	65	–
CC(C)=CCC/C(C)=C/CC/C(C)=C/CCCOc1c(C)cc(N)cc1C [Example 26, 3,5-Dimethyl-4-[(5,9,13-Trimethyl-4(E), 8(E),12-tetradecatrienyl)oxy] aniline]	51	–
COC(=O)Nc1cc(C)c(OCCC/C=C(\C)CC/C=C(\C)CCC=C(C)C)c(C)c1 [Example 27, N-[[3,5-Dimethyl-4-[(5,9,13-Trimethyl-4(E), 8(E), 12-tetradecatrienyl)oxy]]phenyl]methyl carbamate]	47	–
CC(C)=CCC/C(C)=C/CC/C(C)=C/CCCOc1ccc(S(N)(=O)=O)cc1 [Example 28, 4-[(5,9,13-Trimethyl-4(E), 8(E),12-Tetradecatrienyl)oxy] benzenesulfonamide]	58	–
CC(C)=CCC/C(C)=C/CC/C(C)=C/CCCOc1ccc(B2OB(c3ccc(OCCC/C=C(\C)CC/C=C(\C)CCC=C(C)C)cc3)OB(c3ccc(OCCC/C=C(\C)CC/C=C(\C)CCC=C(C)C)cc3)O2)cc1 [Example 29, 2,4,6-Tris-[4-[(5,9,13-Trimethyl-4(E), 8(E),12-tetradecatrienyl)oxy]phenyl]boroxin]	99	–
CC(C)=CCC/C(C)=C/CC/C(C)=C/CCCSc1ccc(O)cc1 [Example 30, 4-[(5,9,13-Trimethyl-4(E), 8(E),12-tetradecatrienyl)thio]phenol]	68	HMG-CoA Reductase Suppression % 10µM [2]: 29%
CC(C)=CCC/C(C)=C/CC/C(C)=C/CCC[S+]([O-])c1ccc(O)cc1 (centres unmarked) [Example 31, 4-[(5,9,13-trimethyl-4(E),8(E),12-tetradecatrienyl)sulfinyl]phenol]	47	–
CC(C)=CCC/C(C)=C/CC/C(C)=C/CCCS(=O)(=O)c1ccc(O)cc1 [Example 32, 4-[(5,9,13-trimethyl-4(E),8(E),12-tetradecatrienyl)sulfonyl]phenol]	38	–
CC(C)=CCC/C(C)=C/CC/C(C)=C/CCCCc1ccc(O)cc1 [Example 33, 4-[6,10,14-Trimethyl-5(E), 9(E), 13-Pentadecatrienyl]phenol]	50	–
CC(C)=CCC/C(C)=C/CC/C(C)=C/CCCNc1ccc(O)cc1 [Example 36, 4-[(5,9,13-Trimethyl-4(E), 8(E),12-tetradecatrienyl)amino]phenol]	43	–
CC(C)=CCC/C(C)=C/CC/C(C)=C/CCCN(C(=O)OC(C)(C)C)c1ccc(O)cc1 [Example 37, 1,1-Dimethylethyl-(4-Hydroxyphenyl)-(5,9,13-Trimethyl-4(E), 8(E), 12-tetradecatrienyl) carbamate]	79	–
CC(C)=CCC/C(C)=C/CC/C(C)=C/CCC(C)(C)Oc1ccc(O)cc1 [Example 39, 4-[(1,1,5,9,13-Pentamethyl-4(E), 8(E), 12-tetradecatrienyl)oxy]phenol hydrate]	37	–
